From patent US6124281A, “Azolobenzazepine derivatives as neurologically active agents” (Zeneca Limited, priority 1998, dated 2000)
Like-named read-outs stand apart in the source and are kept apart here.

Tests used:
[1] = molecular target: T1, N-methyl-D-aspartate receptor (Rattus norvegicus, UniProt P35439); test: [3H]-glycine Binding Assay; parameters: species or system Sprague-Dawley rat; conditions: 20 nM [3H]-glycine, rat cortex and hippocampus synaptic membranes, pH 7.1, 30 minutes at 4° C.
T1 construct: Freshly dissected cortices and hippocampi are homogenized in 0.32M sucrose; from tissue; host or cells: cortices and hippocampi of adult male Sprague-Dawley rats, synaptic membranes
Procedure: [^3 H]-glycine Binding Assay
In the [^3 H]-glycine binding assay, neuronal synaptic membranes are prepared from adult (about 250 g) male Sprague-Dawley rats. Freshly dissected cortices and hippocampi are homogenized in 0.32M sucrose (110 mg/mL). Synaptosomes are isolated by centrifugation (1000×g, 10 minutes), the supernatant is pelleted (20,000×g, 20 minutes) resuspended in double-distilled water. The suspension was centrifuged for 20 minutes at 8,000×g. The resulting supernatant and buffy coat are washed twice (48,000×g, 10 minutes, resuspension in double-deionizedwater). The final pellet is quickly frozen (dry icelethanol bath) under double-deionized water and stored at -70° C.
On the day of the experiment, thawed synaptic membranes are homogenized with a Brinkmann Polytron (TM, Brinkmann Instruments, Westbury, N.Y.) tissue homogenizer in 50 mM tris(hydroxymethyl)aminomethane citrate, pH 7.1. The membranes are incubated with 0.04% Sufact-AMPS X100 (TM, Pierce, Rockford, Ill.) in buffer for 20 minutes at 37° C. and washed six times by centrifugation (48,000×g, 10 minutes) and resuspended in buffer. The final pellet is homogenized at 200 mg wet weight/mL of the buffer for the binding assay.
For [^3 H]-glycine binding at the N-methyl-D-aspartate receptor, 20 nM [^3 H]-glycine (40-60 Ci/mmol, New England Nuclear, Boston, Mass.) is incubated with the membranes suspended in 50 mM tris(hydroxymethyl)aminomethane citrate, pH 7.1 for 30 minutes at 4° C. Glycine, 1mM, is used to define the nonspecific binding. Bound [^3 H]-glycine is isolated from free using a Brandel (Biomedical Research and Development Laboratories, Gaithersburg, Md.) cell harvester for vacuum filtration over glass fiber filters (Whatman GFB from Brandel, Gaithersburg, Md.) presoaked in 0.025% polyethylenimine. The samples retained on the glass fiber filters are rinsed 3 times with a total of 2.5 mL ice cold buffer. Radioactivity is estimated by liquid scintillation counting. IC50 values are obtained from a least-squares regression of a logit-log transformation of the data.

[2] = system: NMDA-induced excitatory response of red nucleus cells; test: Rat Red Nucleus Test; type: in vivo; conditions: iv
Procedure: The purpose of this test is to determine the effects of intravenously administered is glycine antagonists on the NMDA- induced excitatory response of red nucleus cells.
The procedure for the red nucleus test is as follows. Rats are anesthetized with chloral hydrate (400 mg/kg ip) and the femoral vein is catheterized for iv drug administration. Five-barrel micropipettes are stereotaxically positioned in the red nucleus. Typically, three to four of the five barrels are filled as follows: the recording barrel with 2M potassium citrate. the current balancing barrel with 4M NaCl, the drug barrel with 25 mM NMDA, and another drug barrel with 2.5 mM quisqualic acid (QA is only used in selectivity studies). NMDA is iontophoretically applied with an ejection current that is adjusted depending on the sensitivity of each individual red nucleus cell. The NMDA is cycled on and off (usually 30-60 sec. on and 60-120 sec. off) and the firing rate of the cell during each period is recorded. Once the baseline firing rate of the cell has been established, the test drug is administered iv. The inhibitory effect of the drug on the NMDA-induced excitatory response of the red nucleus cell can then be both qualitatively and quantitatively evaluated from the recordings and the raw data accumulated and the results are expressed as an ID50 value (The dose in mg/kg of the test drug which causes 50% inhibition).

[3] = system: neuronal damage in the hippocampus; test: Gerbil Ischemic Model; type: in vivo, Mongolian gerbil; conditions: ip twice (pre- and post-occlusion), 20 mg/kg body weight
Procedure: Adult female Mongolian gerbils (50-70 g) are anesthetized with 2 to 3% halothane. The bilateral common carotid arteries at the neck are exposed and occluded with microaneurysm clips. After 10 min (unless specified), the clips are removed and the blood flow through the carotid arteries is restored and the skin is sutured. Test compounds are administered intraperitoneally both pre- and post-occlusion, for example 45 minutes before and 5 minutes after occlusion of the carotid arteries. Sham-operated animals are treated in the same manner except that the arteries are not clamped, gross behavioral observations along with motor activity are recorded for 2 hours on the first (24 hours) day following the occlusion. After 4 days, subjects are sacrificed (decapitation), brains are removed, fixed, sectioned and stained with hematoxylin/eosin and cresyl violet.
The brain sections are rated for neuronal damage in the hippocampus using the following rating scale:
1=slight damage (up to 25%)--restricted to CA1 subiculum border
2=moderate damage (up to 50%)--obvious damage, restricted to less than half of CA1 field […]
Sections (7 micron) are evaluated from each brain. […] The average brain damage rating score for each group is recorded, and the damage scores of the drug treated group are compared to the vehicle-treated group using Wilcoxcon-Rank Sum test. […]

[4] = system: infarcted cortex; test: Rat Middle Cerebral Artery Test; type: in vivo, SHR rat; conditions: intravenously, 10 mg/kg per hour over 4 hours; permanent MCA occlusion
Procedure: Rat Middle Cerebral Artery Test
Male SHR rats weight 280-320 g are used for these studies. The method used for permanent middle cerebral artery (MCA) occlusion is as described by Brint et al (1988). […] Following occlusions, drugs are administered intravenously via jugular catheter. Twenty-four hours after MCA/common carotid artery occlusion, the animals are sacrificed and their brains quickly removed. Coronal sections of 1 mm thickness are cut using a vibratome and stained with 2,3,5-triphenyl-2H-tetrazolium chloride (TTC) dye. Following staining, necrotic tissue is readily distinguished from the intact brain and the area of infarcted cortex can be traced on an image analyzer. The infarct volume for each section is quantified with an image analyzer, and the total infarct volume is calculated with a program that sums all interval volumes. See S. Brint et al. J. Cerebral Blood Flow 8:474-475 (1988). The statistical analysis of the difference between the volume of ischemic damage in the vehicle control and drug-treated animals is analyzed by Student's t-test. The results are expressed as the percent (%) change in infarct volume and are presented as the mean for animals.

[5] = NMDA-induced excitatory response, compounds of the invention, read-out: ID50 (dose of the test drug which causes 50% inhibition)

Compound: CCCOC(=O)c1n[nH]c2c(=O)[nH]c3cc(Cl)ccc3c(=O)c12 [Example 28, 3-propoxycarbonyl-7-chloropyrazolo[3,4-c][1]benzazepine-4,10(1H,9H)-dione]
- IC50 [1]: 27 nM
- ED50 [2, 5]: 4.6 mg/kg

Compound: O=c1[nH]c2cc(Cl)ccc2c(=O)c2n[nH]nc12 [Example 48(d), 7-Chloro-1,2,3-triazolo[4,5-c][1]benzazepine-4,10(1H,9H)-dione]
- neuroprotection [3]: 77%

Compound: CCCCOC(=O)c1n[nH]c2c(=O)[nH]c3cc(Cl)ccc3c(=O)c12 [Example 27, 3-butoxycarbonyl-7-chloropyrazolo[3,4c][1]benzazepine-4,10(1H,9H)-dione]
- IC50 [1]: 229 nM
- ED50 [2, 5]: 5.7 mg/kg

Compound: NC1CCN(O)C1=O (stereo not shown) [HA-966, reference compound]
- ED50 ([2]; reference agents, read-out: ID50 of reference agents shown to be active in this test): 7.9 mg/kg

Compound: C/C(=C\C(N)C(=O)O)CP(=O)(O)O (stereo not shown) [CGP 37849, reference compound]
- ED50 ([2]; read-out: ID50 of reference agents shown to be active in this test): 1.7 mg/kg

Compound: CC(C)OC(=O)c1n[nH]c2c(=O)[nH]c3cc(Cl)ccc3c(=O)c12 [Example 18, 7-Chloro-3-(isopropoxycarbonyl)pyrazolo[3,4-c][1]benzazepine-4,10(1H,9H)-dione]
- IC50 [1]: 64 nM
- change in infarct volume [4]: -19%
- ED50 [2, 5]: 3.5 mg/kg
